The target in experiment [1] is T1, BCDIN3D (Homo sapiens, UniProt Q7Z5W3).
T1 sequence (Q7Z5W3 1-292): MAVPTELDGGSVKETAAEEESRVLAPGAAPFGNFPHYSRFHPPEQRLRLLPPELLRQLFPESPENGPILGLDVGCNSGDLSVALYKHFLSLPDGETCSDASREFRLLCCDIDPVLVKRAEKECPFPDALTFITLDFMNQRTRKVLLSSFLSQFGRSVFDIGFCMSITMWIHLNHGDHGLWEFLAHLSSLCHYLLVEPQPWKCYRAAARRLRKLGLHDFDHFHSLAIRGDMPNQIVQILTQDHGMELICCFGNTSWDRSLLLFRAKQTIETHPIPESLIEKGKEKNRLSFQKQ
The experiment can be described thus: BCDIN3D IC50 RFMS (RapidFire) assay with mini-helix. To be noted: 25 nM enzyme. It counts as biochemical. The method in brief: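 SAH formation was measured by RapidFire mass spectrometry with D4- and 13C10-SAH internal standards after TCA quench. Substrates 6 μM SAM and 0.2 μM mini-helix reacted 1 h at 37 °C with 25 nM enzyme, which had been preincubated 10 min with compound (1% DMSO) in Tris pH 8.0 buffer with DTT, EDTA, BSA.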

In experiment [2] the target is T1, BCDIN3D. The experiment can be described thus: BCDIN3D InCellPulse thermal stability assay in transfected A549 cells. It counts as cell-based. To be noted: heat shock 58° C. 15 min. In a few lines: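 Thermal stabilisation read-out: after a 15 min 58 °C heat shock, ePL-tagged BCDIN3D in transiently transfected A549 cells (1500/well) was quantified by enzyme-fragment complementation luminescence. Compounds were pre-incubated with cells 1 h at 37 °C, 0.6% DMSO final.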

Setting [3] is: mini-helix substrate 0.2 μM, SAM 6 μM.
[4] abbreviates: transiently transfected A549 cells.
The mark [5] stands for this setting: mini-helix 0.2 μM and SAM 6 μM as substrates, 1 hr at 37° C.
[6] abbreviates: A549 cells transiently transfected with ePL-BCDIN3D, 1 h pre-incubation.

This passage reports IC50 results from patent publication US20220370453A1 (Storm Therapeutics Ltd, priority 2019, published 2022).

SMILES strings stand for the structures.

In the case of `Cn1ncc2c(NCc3ccc(C(F)(F)F)nc3)nc(NCC3(N)CC3)nc21` [Compound 2.19, 6-N-[(1-aminocyclopropyl)methyl]-1-methyl-4-N-[[6-(trifluoromethyl)pyridin-3-yl]methyl]pyrazolo[3,4-d]pyrimidine-4,6-diamine], the results for the IC50 against BCDIN3D [1] (setting [3]) and against BCDIN3D [2] (setting [4]) were 7.12 µM and 11.7 µM, respectively.
As to `CC(C)Oc1ccc(Nc2nc(NC[C@H](N)c3ccccc3)nc3c2cnn3C)cc1` [Compound 4.33, N6-[(2R)-2-amino-2-phenyl-ethyl]-N4-(4-isopropoxyphenyl)-1-methyl-pyrazolo[3,4-d]pyrimidine-4,6-diamine], the half-maximal inhibitory concentration (IC50) (as a rule, the midpoint of a concentration-inhibition curve) against BCDIN3D [1] (setting [3]) was 0.0644 µM; on BCDIN3D [2] (setting [4]) it was 0.038 µM.
For `Cn1ncc2c(NC3CC4(CC4)C3)nc(NC[C@H](N)c3ccccc3)nc21` [Compound 4.119, 1-methyl-N6-[(2R)-2-amino-2-phenyl-ethyl]-N4-spiro[2.3]hexan-5-yl-pyrazolo[3,4-d]pyrimidine-4,6-diamine], in that order: 0.024 µM and 0.027 µM.
With `Cn1ncc2c(NC3CC(C(F)(F)F)C3)nc(NC[C@H](N)c3ccccc3)nc21` (stereo partly drawn) [Compound 4.109, N6-[(2R)-2-amino-2-phenyl-ethyl]-1-methyl-N4-[3-(trifluoromethyl)cyclobutyl]pyrazolo[3,4-d]pyrimidine-4,6-diamine], the values for the IC50 on BCDIN3D [1] (setting [3]) and on BCDIN3D [2] (setting [4]) were 0.017 µM and 0.034 µM, respectively.
In the case of `Cn1ncc2c(NCC3CC34CCC4)nc(NC[C@H](N)c3ccccc3)nc21` (stereo partly drawn) [Compound 4.104, N6-[(2R)-2-amino-2-phenyl-ethyl]-1-methyl-N4-(spiro[2.3]hexan-2-ylmethyl)pyrazolo[3,4-d]pyrimidine-4,6-diamine], the IC50 at BCDIN3D [1] (setting [3]) was 0.028 µM; at BCDIN3D [2] (setting [4]), 0.056 µM.
As to `COCC(C)(C)Nc1nc(NC[C@H](N)c2ccccc2)nc2c1cnn2C` [Compound 4.100, N6-[(2R)-2-amino-2-phenyl-ethyl]-N4-(2-methoxy-1,1-dimethyl-ethyl)-1-methyl-pyrazolo[3,4-d]pyrimidine-4,6-diamine], the values for the IC50 against BCDIN3D [1] (setting [3]) and on BCDIN3D [2] (setting [4]) were 1.33 µM and 1.86 µM, respectively.
With `Cn1ncc2c(Nc3ccc(C(F)(F)F)cc3)cc(NCC3(N)CC3)nc21` [Compound 2.52, N6-[(1-Aminocyclopropyl)methyl]-1-methyl-N4-[4-(trifluoromethyl)phenyl]pyrazolo[3,4-b]pyridine-4,6-diamine], the values for the IC50 on BCDIN3D [1] (setting [3]) and on BCDIN3D [2] (setting [4]) were 6.9 µM and 8.89 µM, respectively.
Take `Cn1ncc2c(Nc3ccc(OC(F)F)nc3)nc(NCC(N)c3ccccc3)nc21` (stereo not drawn) [Compound 4.28, N6-(2-amino-2-phenyl-ethyl)-N4-[6-(difluoromethoxy)-3-pyridyl]-1-methyl-pyrazolo[3,4-d]pyrimidine-4,6-diamine]: the IC50 on BCDIN3D [1] (setting [3]) stood at 0.149 µM; against BCDIN3D [2] (setting [4]), 0.318 µM.
`Cn1ncc2c(Nc3cccnc3)nc(NCC3(N)CC3)nc21` [Compound 2.10, 6-N-[(1-aminocyclopropyl)methyl]-1-methyl-4-N-pyridin-3-ylpyrazolo[3,4-d]pyrimidine-4,6-diamine]: the IC50 at BCDIN3D [1] (setting [3]) is 8.68 µM; against BCDIN3D [2] (setting [4]), 15.7 µM.
Turning to `Cn1ncc2c(Nc3ccc(F)cc3)nc(NC[C@@H](N)c3ccccc3)nc21` [Compound 7.06, N6-[(2S)-2-amino-2-phenyl-ethyl]-N4-(4-fluorophenyl)-1-methyl-pyrazolo[3,4-d]pyrimidine-4,6-diamine], the IC50 was 2.19 µM against BCDIN3D [1] (setting [5]) and 2.93 µM against BCDIN3D [2] (setting [6]).
Take `Cn1ncc2c(NC3CC34CC4)nc(NC[C@H](N)c3ccccc3)nc21` (stereo partly drawn) [Compound 4.80, N6-[(2R)-2-amino-2-phenyl-ethyl]-1-methyl-N4-spiro[2.2]pentan-2-yl-pyrazolo[3,4-d]pyrimidine-4,6-diamine]: the IC50 against BCDIN3D [1] (setting [3]) amounted to 0.656 µM; against BCDIN3D [2] (setting [4]) it was 0.518 µM.
For `Cn1ncc2c(NC3CC4(CC(O)C4)C3)nc(NC[C@H](N)c3ccccc3)nc21` (stereo partly drawn) [Compound 4.124, 6-[(6-{[(2R)-2-amino-2-phenylethyl]amino}-1-methyl-1H-pyrazolo[3,4-d]pyrimidin-4-yl)amino]spiro[3.3]heptan-2-ol], the IC50 at BCDIN3D [1] (setting [3]) turned out to be 0.29 µM; on BCDIN3D [2] (setting [4]), 0.57 µM.
In the same order, the values of `Cn1ncc2c(NC34CC(C#N)(C3)C4)nc(NCC(N)c3ccccc3)nc21` (stereo not drawn) [Compound 4.64, 3-[[6-[(2-amino-2-phenylethyl)amino]-1-methylpyrazolo[3,4-d]pyrimidin-4-yl]amino]bicyclo[1.1.1]pentane-1-carbonitrile] are 0.202 µM and 0.949 µM.
In the case of `Cn1ncc2c(NC3CC(C)(C)C3)nc(NC[C@H](N)c3ccccc3)nc21` [Compound 4.96, N6-[(2R)-2-amino-2-phenyl-ethyl]-N4-(3,3-dimethylcyclobutyl)-1-methyl-pyrazolo[3,4-d]pyrimidine-4,6-diamine], the results for the IC50 against BCDIN3D [1] (setting [3]) and at BCDIN3D [2] (setting [4]) were 0.014 µM and 0.0218 µM, respectively.
As for `CC[C@H](N)CNc1nc(NCc2ccc(C)c(Cl)c2)c2cnn(C)c2n1` [Compound 3.06, 6-N-[(2S)-2-aminobutyl]-4-N-[(3-chloro-4-methylphenyl)methyl]-1-methylpyrazolo[3,4-d]pyrimidine-4,6-diamine], the IC50 stood at 3.42 µM against BCDIN3D [1] (setting [3]) and 4.42 µM at BCDIN3D [2] (setting [4]).
`Cn1ncc2c(NCC3CCC3)nc(NC[C@H](N)c3ccccc3)nc21` [Compound 4.105, N6-[(2R)-2-amino-2-phenyl-ethyl]-N4-(cyclobutylmethyl)-1-methyl-pyrazolo[3,4-d]pyrimidine-4,6-diamine]: the results for the half-inhibitory concentration (IC50) against BCDIN3D [1] (setting [3]) and on BCDIN3D [2] (setting [4]) were 0.074 µM and 0.144 µM, respectively.
For the compound `Cn1ncc2c(Nc3ccc(C(F)(F)F)cc3)nc(NC[C@@H](N)c3ccccc3)nc21` [Compound 4.23, 6-N-[(2S)-2-amino-2-phenylethyl]-1-methyl-4-N-[4-(trifluoromethyl)phenyl]pyrazolo[3,4-d]pyrimidine-4,6-diamine], the IC50 on BCDIN3D [1] (setting [3]) was found to be 1.52 µM; at BCDIN3D [2] (setting [4]) it was 0.202 µM.
For the compound `Cn1ncc2c(Nc3ccc(C(F)(F)F)cc3)nc(NCCN)nc21` [Compound 1.01, N6-(2-Aminoethyl)-1-methyl-N4-[4-(trifluoromethyl)phenyl]pyrazolo[3,4-d]pyrimidine-4,6-diamine], the values for the IC50 at BCDIN3D [1] (setting [5]) and against BCDIN3D [2] (setting [6]) were 1.98 µM and 3.33 µM, respectively.
On to `CNc1nc(NCC(N)c2cccc(C#N)c2)nc2c1cnn2C` (stereo not drawn) [Compound 5.04, 3-[1-Amino-2-[[1-methyl-4-(methylamino)pyrazolo[3,4-d]pyrimidin-6-yl]amino]ethyl]benzonitrile], for which the concentration for half-maximal inhibition (IC50) amounted to 0.694 µM against BCDIN3D [1] (setting [3]) and 3.64 µM on BCDIN3D [2] (setting [4]).
With `Cn1ncc2c(Nc3ccc(C(F)(F)F)nc3)nc(NC[C@](C)(N)c3ccccc3)nc21` (single isomer, unassigned) [Compound 7.13], the IC50 was 2.62 µM on BCDIN3D [1] (setting [5]) and 6 µM on BCDIN3D [2] (setting [6]).
For `Cn1ncc2c(NC(C)(C)C)nc(NCC(N)c3cccc(Br)c3)nc21` (stereo not drawn) [Compound 5.18, N6-[2-amino-2-(3-bromophenyl)ethyl]-N4-tert-butyl-1-methyl-pyrazolo[3,4-d]pyrimidine-4,6-diamine], the half-maximal inhibitory concentration (IC50) against BCDIN3D [1] (setting [3]) turned out to be 0.047 µM; at BCDIN3D [2] (setting [4]), 0.0278 µM.
With `C[C@@H](Nc1nc(NC[C@H](N)c2ccccc2)nc2c1cnn2C)C1CC1` [Compound 4.129, N6-[(2R)-2-amino-2-phenylethyl]-N4-[(1R)-1-cyclopropylethyl]-1-methyl-1H-pyrazolo[3,4-d]pyrimidine-4,6-diamine], the figures for the IC50 against BCDIN3D [1] (setting [3]) and against BCDIN3D [2] (setting [4]) were 0.18 µM and 0.29 µM, respectively.
As to `Cn1ncc2c(N[C@H]3C[C@H](F)C3)nc(NC[C@H](N)c3ccccc3)nc21` [Compound 4.89, N6-[(2R)-2-amino-2-phenyl-ethyl]-N4-(3-fluorocyclobutyl)-1-methyl-pyrazolo[3,4-d]pyrimidine-4,6-diamine], the IC50 was determined as 0.109 µM against BCDIN3D [1] (setting [3]) and 0.223 µM at BCDIN3D [2] (setting [4]).
Consider `COc1ccc(CNc2nc(NCC(N)c3ccccc3)nc3c2cnn3C)c(OC)c1` (stereo not drawn) [Compound 4.09, N6-(2-amino-2-phenyl-ethyl)-N4-[(2,4-dimethoxyphenyl)methyl]-1-methyl-pyrazolo[3,4-d]pyrimidine-4,6-diamine], for which the IC50 on BCDIN3D [1] (setting [3]) worked out at 0.178 µM; against BCDIN3D [2] (setting [4]) it was 0.505 µM.
In the same order, the values of `Cn1ncc2c(NCCC(F)(F)F)nc(NC[C@H](N)c3ccccc3)nc21` [Compound 4.114, N6-[(2R)-2-amino-2-phenyl-ethyl]-1-methyl-N4-(3,3,3-trifluoropropyl)pyrazolo[3,4-d]pyrimidine-4,6-diamine] are 0.54 µM and 1.56 µM.
With `CN(C)c1ccc(Nc2nc(NC[C@H](N)c3ccccc3)nc3c2cnn3C)cc1` [Compound 4.35, N6-[(2R)-2-amino-2-phenyl-ethyl]-N4-[4-(dimethylamino)phenyl]-1-methyl-pyrazolo[3,4-d]pyrimidine-4,6-diamine], the IC50 against BCDIN3D [1] (setting [3]) came to 0.143 µM; against BCDIN3D [2] (setting [4]) it was 0.141 µM.
For `Cn1ncc2c(NC(C)(C)C)nc(NCC(C)(N)c3ccccc3)nc21` (stereo not drawn) [Compound 4.51, N6-(2-amino-2-phenyl-propyl)-N4-tert-butyl-1-methyl-pyrazolo[3,4-d]pyrimidine-4,6-diamine], the values for the IC50 against BCDIN3D [1] (setting [3]) and on BCDIN3D [2] (setting [4]) were 0.581 µM and 1.81 µM, respectively.
